# According to PMC6718478, “A Comprehensive Antimicrobial Activity Evaluation of the Recombinant Microcin J25 Against the Foodborne Pathogens Salmonella and E. coli O157:H7 by Using a Matrix of Conditions” (Frontiers in Microbiology, 2019):
# Positions of bridges follow the written chain, without caps; N, C: chain ends. Residues, ends and D or L forms follow the SMILES beside them.
# Experiments:
# [1] = tested on: S. Typhimurium ATCC14082; assay: Antimicrobial activity (killing) curves; assay type: cell-based, Salmonella Typhimurium; details: 4 × MIC; log phase, ~5 × 10^4 CFU/mL in LB, 37°C; plate counts at 0, 2, 4, 6 h; n = 6
# Procedure: (§1) To further address the activity of recombinant MccJ25, antimicrobial activity curves and Live/Dead viability assay were performed. A single colony of S. Pullorum CVCC1791, S. Typhimurium ATCC14082, and E. coli O157:H7 was inoculated into 5 mL of LB. The culture was then incubated at 37°C with shaking at 200 rpm overnight. The following day, the culture was diluted 1:100 in fresh LB and again incubated at 37°C with shaking at 200 rpm. For antimicrobial activity, the bacteria were grown until they reached log phase. Approximately 5 × 10^4 CFU/mL bacteria were inoculated into 2 mL of LB containing different concentrations of the recombinant MccJ25 (0, 1 × MIC, 2 × MIC, and 4 × MIC). The cultures (0.1 mL) were serially diluted with PBS and plated on LB and TSA agar at 0, 2, 4, and 6 h. The plates were incubated at 37°C overnight to count colony. Colonies were counted to determine CFU/mL. The experiment was conducted with two replicates in three independent trials.
# [2] = tested on: E. coli O157:H7; assay: Antimicrobial activity in biological food products (skim milk, egg yolk, mincemeat extract); assay type: cell-based, Escherichia coli; details: 4 × MIC, SKM, 37°C; for viable bacteria after 24 h in the three food products: SEY, SMS, data not shown
# [3] = tested on: S. Pullorum; assay: pH stability, inhibition zone read-out; assay type: physicochemical, Salmonella Pullorum; details: pH 2.0 to 9.0 for 2 h; 150 μL of 1 × MIC; Oxford cup inhibition zone on LB agar, overnight 37°C; three replicate experiments
# Procedure: (§2) Assays of the antibacterial activity of recombinant MccJ25 at different temperatures (25, 37, 45, 55, 65, 75, 85, and 95°C for 20 min) and different pH values (pH 2.0, 3.0, 4.0, 5.0, 6.0, 7.0, 8.0, and 9.0 for 2 h) were performed. The assays were conducted as described previously ([Chen et al., 2009]; [Meng et al., 2019]), with slight modifications. LB agar inoculated with the indicator bacteria S. Pullorum (approximately 10^5 viable cells per mL) was poured over plates fitted with Oxford cups to make wells. 150 μL of 1 × MIC final concentration of recombinant MccJ25 samples previously treated under various conditions were added to the wells. The agar overlays were incubated overnight at 37°C, and the inhibition zones were recorded.
# [4] = tested on: S. Pullorum CVCC1791; assay: Antimicrobial activity (killing) curves; assay type: cell-based, Salmonella Pullorum
# Procedure: as §1, with “The cultures (0.1 mL) were serially diluted with PBS and plated on LB and TSA agar at 0, 2, 4, and 6 h.” left out
# [5] = tested on: E. coli O157:H7; assay: Live/Dead BacLight viability assay; assay type: cell-based, Escherichia coli; details: at the MIC level, 2 h at 37°C, 5 × 10^4 CFU/mL in LB; fluorescence microscopy
# Procedure: (§3) A Live/Dead BacLight Bacterial Viability Kit 7 (Molecular Probes, Inc., Eugene) was used to test bacterial viability. Briefly, 5 × 10^4 CFU/mL S. Pullorum, S. Typhimurium, and E. coli O157:H7 were inoculated into 1 mL of LB containing recombinant MccJ25 at the MIC level specific for each pathogen. Bacterial cultures were incubated at 37°C for 2 h and then incubated in the dark at ambient temperature with SYTO 9 and propidium iodide for 15 min. Bacteria were observed using a fluorescence microscope (EVOS XL Cell Imaging System).
# [6] = tested on: S. Typhimurium; assay: Live/Dead BacLight viability assay; assay type: cell-based, Salmonella Typhimurium; details: at the MIC level, 2 h at 37°C, 5 × 10^4 CFU/mL in LB; fluorescence microscopy
# Procedure: as §3
# [7] = tested on: S. Pullorum; assay: Thermal stability, inhibition zone read-out; assay type: physicochemical, Salmonella Pullorum; details: temperatures as high as 121°C for 20 min; 150 μL of 1 × MIC; Oxford cup inhibition zone on LB agar, overnight 37°C; three replicate experiments
# Procedure: as §2, with “Assays of the antibacterial activity of recombinant MccJ25 at different temperatures (25, 37, 45, 55, 65, 75, 85, and 95°C for 20 min) and different pH values (pH 2.0, 3.0, 4.0, 5.0, 6.0, 7.0, 8.0, and 9.0 for 2 h) were performed.” left out
# [8] = tested on: E. coli O157:H7; assay: Antimicrobial activity (killing) curves; assay type: cell-based, Escherichia coli; details: 4 × MIC; log phase, ~5 × 10^4 CFU/mL in LB, 37°C; plate counts at 0, 2, 4, 6 h; n = 6
# Procedure: as §1
# [9] = tested on: S. Pullorum; assay: Live/Dead BacLight viability assay; assay type: cell-based, Salmonella Pullorum; details: at the MIC level, 2 h at 37°C, 5 × 10^4 CFU/mL in LB; fluorescence microscopy
# Procedure: as §3
# [10] = tested on: S. Pullorum; assay: SEM of cell membrane morphology; assay type: cell-based, Salmonella Pullorum; details: 1 or 4 × MIC for 1 h at 37°C; ~2 × 10^6 cells
# Procedure: To assess the alteration of S. Pullorum cell membrane morphology and ultrastructure, SEM and TEM were performed as described previously, with minor modifications ([Wang et al., 2017]; [Meng et al., 2019]). For SEM sample preparation, approximately 2 × 10^6 S. Pullorum cells were incubated at 37°C for 1 h with the recombinant MccJ25 at 1× and 4 × MIC levels. The control was performed without the recombinant MccJ25. After incubation, the cells were harvested, mixed and centrifuged at 8,000 × g for 3 min. The bacterial pellets were washed three times in PBS and centrifuged at 3,000 × g for 10 min. The bacterial cells were resuspended in 500 μL of PBS and supplemented with 2.5% fresh glutaraldehyde at 4°C overnight. Thereafter, the bacterial pellets were postfixed in 1% osmium tetroxide, dehydrated, and coated with gold-palladium. They were observed by SEM (EVO MA10 XVP, Carl Zeiss).
compound,measurement,setting,value
"CC[C@H](C)[C@H](NC(=O)CNC(=O)[C@@H](NC(=O)[C@H](Cc1ccccc1)NC(=O)[C@H](Cc1ccc(O)cc1)NC(=O)[C@@H]1CCC(=O)NCC(=O)NCC(=O)N[C@@H](C)C(=O)NCC(=O)N[C@@H](Cc2c[nH]cn2)C(=O)N[C@@H](C(C)C)C(=O)N2CCC[C@H]2C(=O)N1)C(C)C)C(=O)NCC(=O)N[C@H](C(=O)N1CCC[C@H]1C(=O)N[C@H](C(=O)N[C@@H](CO)C(=O)N[C@@H](Cc1ccccc1)C(=O)N[C@@H](Cc1ccc(O)cc1)C(=O)NCC(=O)O)[C@@H](C)CC)[C@@H](C)O [recombinant MccJ25, microcin J25] (GGAGHVPEYFVGIGTPISFYG-OH; lactam N-8 (inferred); C-terminus assumed)",incubation time after which the pathogen was eliminated (killing curve),[1],6 h
same,viable bacteria after 24 h in the three food products,[2]; inoculum 10^3 CFU/mL,no viable bacteria were detected
same,viable bacteria after 24 h in the three food products,[2]; inoculum 10^4 CFU/mL,no bacteria were detected
same,CFU reduction after 24 h,"[2]; SEY, and SMS, inoculum 10^6 CFU/mL, plate counts, n = 6",approximately 10^3 CFU/mL
same,effect of pH on activity against S. Pullorum (pH stability),[3],no effect
same,regrowth in killing curve,"[4]; 1 × MIC, after 8 h of incubation",did not exhibit regrowth
same,incubation time after which all bacteria were killed (killing curve),"[4]; 1 × MIC, log phase, ~5 × 10^4 CFU/mL in LB, 37°C, plate counts, n = 6",4 h
same,incubation time after which the pathogen was eliminated (killing curve),"[4]; 4 × MIC, log phase, ~5 × 10^4 CFU/mL in LB, 37°C, plate counts at 0, 2, 4, 6 h, n = 6",6 h
same,"bactericidal activity, Live/Dead staining (SYTO 9 / propidium iodide)",[5],excellent bactericidal activity
same,"bactericidal activity, Live/Dead staining (SYTO 9 / propidium iodide)",[6],excellent bactericidal activity
same,influence of temperature on activity against S. Pullorum (thermal stability),[7],no influence
same,incubation time after which the pathogen was eliminated (killing curve),[8],6 h
same,"bactericidal activity, Live/Dead staining (SYTO 9 / propidium iodide)",[9],excellent bactericidal activity
same,cell membrane morphology by SEM,[10],"minimal membrane roughening, enlargement, and some filiferous adhesions in a small amount of cells"
